Experimental data as given in US20050245434A1, “Oxygenated dibenzo-alpha-pyrone chromoproteins” (priority 2004, published 2005).
Converted amounts (≈) assume the structure as drawn.

System: Fe-ADP-Ascorbate induced lipid peroxidation (LPO) in rat brain
Assay: Inhibition of Fe-ADP-ascorbate induced lipid peroxidation (LPO) in rat brain homogenate
Format: biochemical, Albino rats (Sprague Dawley strain)
Conditions: 37° C., 30 minutes
Experimental: Inhibition of Fe-ADP-Ascorbate Induced Lipid Peroxidation (LPO) in Rat Brain by DBP and DCPs
Albino rats (Sprague Dawley strain) were sacrificed by cervical dislocation and decapitation. Brains were dissected out and 10% w/v homogenate was prepared in 0.15 M KCl. The brain homogenate was centrifuged at 1500 rpm for 10 minutes and the supernatant was used for the study. The incubation mixture contained in a final volume of 1 ml., brain homogenate (500 μl), distilled water (100 μl) or test compounds dissolved in solvents at different concentrations (10 to 100 μg/ml of the final volume). Peroxidation was initiated by adding FeCl3 (100 μM), ADP (1 mM) and ascorbate (100 μM) to give the final concentration stated. After incubating at 37° C. for 30 minutes, the reaction was stopped by adding acetic acid buffer (1.5 ml, pH 3.5) and thiobarbituric acid solution (1.5 ml, pH 7.4) to 1 ml of LPO mixture. The reaction mixture was heated at 85° C. for 30 minutes, cooled, centrifuged (2000 rpm for 10 minutes) and the absorbance of the supernatant was measured at 532 nm. IC50 values were calculated in the usual way by plotting the concentration of the test compounds versus percent inhibition of LPO.

| IC50 (effect on LPO) [µg/mL] | Compound |
| --- | --- |
| 30 (≈ 131 µM) | O=c1oc2cc(O)ccc2c2ccc(O)cc12 [3,8-Dihydroxydibenzo-alpha-pyrone] |
| 70 (≈ 397 µM) | O=C1O[C@H]([C@@H](O)CO)C(O)=C1O [Ascorbic acid] |
| 56 | CC(=O)Oc1c(C)c(C)c2c(c1C)CCC(C)(CCC[C@H](C)CCC[C@H](C)CCCC(C)C)O2 (stereo partly drawn) [Vitamin E acetate] |
